Test results: patent publication US7858649B2, “Imidazole derivatives and their use for modulating the GABAA receptor complex” (Neurosearch A/S, priority 2005, dated 2010)

Legend:
[1] = target: benzodiazepine binding site on GABAA receptors (rat cerebral cortex membranes); experiment: In vitro inhibition of 3H-flunitrazepam (3H-FNM) binding; settings: inhibition of specific binding of 3H-FNM (1 nM), cerebral cortex membranes from male Wistar rats, 40 min at 2° C.
Experimental: In Vitro Inhibition of ^3H-flunitrazepam (^3H-FNM) Binding
The GABA recognition site and the benzodiazepine modulatory unit can selectively be labelled with ^3H-flunitrazepam.
Preparations are performed at 0-4° C. unless otherwise indicated. Cerebral cortex from male Wistar rats (150-200 g) is homogenised for 5-10 sec in 20 ml Tris-HCl (30 mM, pH 7.4) using an Ultra-Turrax homogeniser. The suspension is centrifuged at 27,000×g for 15 min and the pellet is washed three times with buffer (centrifuged at 27,000×g for 10 min). The washed pellet is homogenized in 20 ml of buffer and incubated on a water bath (37° C.) for 30 min to remove endogenous GABA and then centrifuged for 10 min at 27,000×g. The pellet is then homogenized in buffer and centrifuged for 10 min at 27,000×g. The final pellet is resuspended in 30 ml buffer and the preparation is frozen and stored at −20° C.
The membrane preparation is thawed and centrifuged at 2° C. for 10 min at 27,000×g. The pellet is washed twice with 20 ml 50 mM Tris-citrate, pH 7.1 using an Ultra-Turrax homogeniser and centrifuged for 10 min at 27,000×g. The final pellet is resuspended in 50 mM Tris-citrate, pH 7.1 (500 ml buffer per g of original tissue), and then used for binding assays. Aliquots of 0.5 ml tissue are added to 25 μl of test solution and 25 μl of ^3H-FNM (1 nM, final concentration), mixed and incubated for 40 min at 2° C. Non-specific binding is determined using Clonazepam (1 μM, final concentration). After incubation the samples are added 5 ml of ice-cold buffer and poured directly onto Whatman GF/C glass fibre filters under suction and immediately washed with 5 ml ice-cold buffer. The amount of radioactivity on the filters is determined by conventional liquid scintillation counting. Specific binding is total binding minus non-specific binding.
25-75% inhibition of specific binding must be obtained, before calculation of an IC50.
The test value will be given as IC50 (the concentration (μM) of the test substance which inhibits the specific binding of ^3H-FNM by 50%).
Co is specific binding in control assays, and […]

SMILES | melting point [°C] | IC50 [1] [nM]
Cc1noc(-c2cn(-c3cccc(Br)c3)cn2)n1 | 200.1 to 202.4 | 
Cc1noc(-c2cn(-c3cccc(-c4ccc(F)nc4)c3)cn2)n1 [2-Fluoro-5-{3-[4-(3-methyl-[1,2,4]oxadiazol-5-yl)-imidazol-1-yl]-phenyl}-pyridine] |  | 60
Cc1noc(-c2cn(-c3cccc(-c4ccccc4F)c3)cn2)n1 [3-Methyl-5-[1-(2′-fluoro-biphenyl-3-yl)-1H-imidazol-4-yl]-[1,2,4]oxadiazole] |  | 33
Cc1noc(-c2cn(-c3cccc(-c4ccccc4OC(F)(F)F)c3)cn2)n1 [3-Methyl-5-[1-(2′-trifluoromethoxy-biphenyl-3-yl)-1H-imidazol-4-yl]-[1,2,4]oxadiazole] | 141.6 to 143.9 | 17
